# Marks after values point to notes of the source that are not given here.
# How the values were obtained:
# [1] = test system: glochidia of L. siliquoidea; design: method as in Gilroy et al. ([2017]); conditions: ref Gilroy et al. ([2017]); cited from earlier work
# juvenile L. siliquoidea = test system: juvenile L. siliquoidea; design: method as in Gilroy et al. ([2017]); conditions: ref Gilroy et al. ([2017]); cited from earlier work
# D. magna [2] = conditions: ref Minguez et al. ([2014]); cited from earlier work
# [3] = Acute 48 h aqueous toxicity test with glochidia (viability); format: in vivo, Lampsilis siliquoidea; conditions: Lampsilis siliquoidea, in vivo, other: aqueous (water-only) exposure, 48-h aqueous exposure, n = 4, read-out: Viability (mean, % (standard deviation))
# From the text: (§1) Aqueous acute toxicity tests were based on the American Society for Testing and Materials (ASTM [2013]) protocols for conducting toxicity tests with early life stages of freshwater mussels. Gravid female L. siliquoidea were collected from an established reference site in the Maitland River (ON) and kept in ECCC’s Aquatic Life Research Facility (Canada Centre for Inland Waters, Burlington, ON). Glochidia were removed from gravid females and their viability (i.e., ability to close their valves) was assessed. Glochidia from a minimum of three gravid mussels whose glochidia exceeded 90% viability were pooled and exposed to a geometric series of nominal concentrations (0, 0.0025, 0.025, 0.25, 2.5, 25 mg/L) of either FIN or MGA plus a solvent control. Tests were conducted in 250-mL glass beakers (unaerated and unfed) with culture water. After 24 and 48 h of exposure, glochidia viability was assessed in a minimum of 100 glochidia per replicate (four replicates). Water samples were collected at the beginning and end of the tests, and frozen pending chemical analysis.
# [4] = test system: Lampsilis siliquoidea glochidia; assay: as above; format: in vivo; conditions: for Viability (mean, % (standard deviation)): 48-h aqueous exposure, n = 4
# From the text: as §1
# amphipod Hyalella azteca = assay: Chronic 42-day sediment test with amphipods (survival, growth, reproduction, sex ratio)
# Experimental: Dechlorinated municipal tap water was used for cultures and toxicity tests. Both cultures and toxicity tests were held at 25 °C with a photoperiod of 16 h light:8 h dark, and amphipods were fed finely ground Tetra-Min fish food flakes (Tetra GMBH, Melle, Germany). Juvenile amphipods were removed weekly from breeding containers and used in toxicity tests.
# Two tests were conducted for each compound. Amphipods were fed ground Tetra-Min twice per week during weeks 1 and 2, three times during week 3, and 5 mg three times per week during weeks 4 to 6. Surviving adults were counted, weighed as a group, and examined under a dissecting microscope to identify males (enlarged second gnathopods) and females, and the number of juveniles was recorded.
# [5] = test system: juvenile mussels L. siliquoidea; assay: 21 d range-finding sediment test, juvenile mussels; format: in vivo
# Experimental: (§2) Range-finding tests of 21 d were completed with juvenile mussels, amphipods and mayflies to assist with the selection of the concentrations to be used in final testing. Nominal concentrations in range-finding tests were 0.1, 1, 10, 100, and 1000 mg/kg, based on dry weight of sediment. Range-finding test conditions were identical to those described in the manuscript for chronic sediment tests with the exception of test duration.
# After 21 d, mussels were recovered and transferred to Petri dishes filled with clean sand and housed in large trays of aerated culture water to assess burial ability.
# amphipods H. azteca = assay: 21 d range-finding sediment test, amphipods; format: in vivo, Hyalella azteca; conditions: n = 3
# Experimental: as §2
# Amphipods were fed 2.5 mg Tetra-min twice per week during weeks one and two, and three times during week three. At the end of the test, amphipods were removed and the survivors were counted and weighed.
# mayflies Hexagenia spp. = assay: 21 d range-finding sediment test, mayflies; format: in vivo; conditions: n = 3
# Experimental: as §2
# At the end of the test, survival and wet weight of mayflies in each replicate were recorded.
# mayfly Hexagenia spp. [6] = conditions: Hexagenia spp. (mixture of H. rigida and H. limbata), in vivo, 42 days, pH 8.3
# Experimental: (§3) Nominal concentrations were 10, 30, 100, 300, and 1000 mg/kg for juvenile freshwater mussels and 3, 10, 30, 100, and 300 mg/kg for amphipods and mayflies, and were based on the results of range-finding tests (detailed in Supplementary Materials). […] For each PPCP, the concentration of solvent used was consistent across treatments.
# (§4) The sediments were mixed for 24 h, left open in a fume hood for 3–5 days for the acetone to evaporate, and then stored at 4 °C until use. […] All beakers were aerated for 1 week under testing conditions prior to the addition of organisms, and throughout the tests. Duration of toxicity tests varied depending on the species and endpoint of interest (see below). Water quality parameters were collected for each test (Table S1).
# (§5) Briefly, eggs of Hexagenia spp. […] Prior to testing, eggs were hatched and nymphs were grown in aerated 20-L aquaria containing culture sediment (depth: 2.5 cm) and culture water (depth: 10 cm) for 6 to 7 weeks.
# (§6) Ten mayflies (5–8 mg wet weight) were added to each beaker (three replicates for each control and PPCP concentration). Two tests were conducted for each compound. […] At the end of the test, mayflies were removed and surviving animals from each of the three replicates were counted and weighed.
# [7] = test system: goldfish (Carassius auratus); design: method as in Upjohn Company [1996]; conditions: 1 mg/L MGA for 21 days; ref Upjohn Company [1996]; cited from earlier work
# [8] = test system: African clawed frog (Xenopus laevis) larvae; design: method as in Finch et al. [2013]; conditions: chronic exposure to 100 ng/L MGA; ref Finch et al. [2013]; cited from earlier work
# [9] = natural and simulated sunlight; ref Qu et al. [2012]; cited from earlier work
# mayfly Hexagenia spp. [10] = assay: Chronic 42-day sediment test with mayflies (survival, growth); conditions: measured, n = 6
# Experimental: as §3, §4, §5, §6
# D. magna [11] = test system: D. magna; design: method as in Haeba et al. [2008]; conditions: ref Haeba et al. [2008], cited from earlier work
# [12] = Hyalella azteca, in vivo, 42 days, pH 8.3
# [13] = 0.1 mg/kg dry weight nominal, n = 3
# [14] = 1 mg/kg dry weight nominal, n = 3
# [15] = 10 mg/kg dry weight nominal, n = 3
# [16] = 100 mg/kg dry weight nominal, n = 3
compound,measurement,setting,value
CN(C)CCC=C1c2ccccc2CCc2ccccc21 [amitriptyline],24-h LC50,[1],0.3 µg/mL
same,14-day LC50,juvenile L. siliquoidea,0.4 µg/mL
same,48-h EC50,D. magna [2],4.8 µg/mL
C=C1C[C@H]2[C@@H]3C=C(C)C4=CC(=O)CC[C@]4(C)[C@H]3CC[C@]2(C)[C@@]1(OC(C)=O)C(C)=O [Melengestrol acetate],"viability at 48 h, 0.005 mg/L",[3]; 0.005 mg/L mean measured,86%
same,"viability at 48 h, 0.05 mg/L",[3]; 0.05 mg/L mean measured,82%
same,"viability at 48 h, 0.3 mg/L",[3]; 0.3 mg/L mean measured,85%
same,"viability at 48 h, 1.9 mg/L",[3]; 1.9 mg/L mean measured,82%
same,"viability at 48 h, 4 mg/L",[3]; 4 mg/L mean measured,70%
same,Decrease in viability,"[4]; 4 mg/L MGA, water-only",20%
same,"Viability (mean, % (standard deviation))",[4]; 0.05 mg/L mean measured,82 (2.1)^b %
same,"Viability (mean, % (standard deviation))",[4]; 1.9 mg/L mean measured,82 (3.3)^b %
same,NOEC,"[4]; Lampsilis siliquoidea, in vivo, 48 h",1.9 mg/L^b
same,ChV (geometric mean of NOEC and LOEC),"[4]; viability, acute 48 h",2.8 mg/L
same,"ChV, sediment",amphipod Hyalella azteca; [12],53 mg/kg
same,"LOEC, overlying water",amphipod Hyalella azteca; [12],0.5 mg/L
same,"LOEC, sediment",amphipod Hyalella azteca; [12],76 mg/kg
same,"NOEC, overlying water",amphipod Hyalella azteca; [12],0.25 mg/L
same,"Females (percent of surviving amphipods), mean (SEM)","amphipod Hyalella azteca; melengestrol acetate 76 mg/kg dw sediment (0.5 mg/L water), measured, 42-day, n = 10",60 (4.5) %
same,"NOEC, sediment","amphipod Hyalella azteca; survival, growth, 42-day, dry weight sediment, measured",37 mg/kg
same,"Burial (%), mean (SEM)",[5]; [13],85 (4.8) %
same,"Survival (%), mean (SEM)",[5]; [13],93 (3.3) %
same,"Burial (%), mean (SEM)",[5]; [14],97 (7.0) %
same,"Survival (%), mean (SEM)",[5]; [14],97 (3.3) %
same,"Burial (%), mean (SEM)",[5]; [15],90(5.8) %
same,"Survival (%), mean (SEM)",[5]; [15],97 (3.3) %
same,"Burial (%), mean (SEM)",[5]; [16],90 (0.0) %
same,"Survival (%), mean (SEM)",[5]; [16],100 (0.0) %
same,"Burial (%), mean (SEM)","[5]; 1000 mg/kg dry weight nominal, n = 3",68 (5.8) %
same,"Survival (%), mean (SEM)","[5]; 1000 mg/kg dry weight nominal, n = 3, 1000 mg/kg",77 (8.8) %
same,"Growth, mean (SEM)",amphipods H. azteca; 0.1 mg/kg dry weight nominal,1.0 (0.09) mg wet weight
same,"Survival (%), mean (SEM)",amphipods H. azteca; 0.1 mg/kg dry weight nominal,100 (3.8) %
same,"Growth, mean (SEM)",amphipods H. azteca; 1 mg/kg dry weight nominal,1.0 (0.07) mg wet weight
same,"Survival (%), mean (SEM)",amphipods H. azteca; 1 mg/kg dry weight nominal,100 (0.0) %
same,"Growth, mean (SEM)",amphipods H. azteca; 10 mg/kg dry weight nominal,1.1 (0.10) mg wet weight
same,"Survival (%), mean (SEM)",amphipods H. azteca; 10 mg/kg dry weight nominal,95 (2.2) %
same,"Growth, mean (SEM)",amphipods H. azteca; 100 mg/kg dry weight nominal,0.7 (0.15) mg wet weight
same,"Survival (%), mean (SEM)",amphipods H. azteca; 100 mg/kg dry weight nominal,95 (2.2) %
same,"Survival (%), mean (SEM)",amphipods H. azteca; 1000 mg/kg dry weight nominal,0^a (0.0) %
same,"Growth, mean (SEM)",mayflies Hexagenia spp.; 0.1 mg/kg dry weight nominal,33 (0.2) mg wet weight
same,"Survival (%), mean (SEM)",mayflies Hexagenia spp.; 0.1 mg/kg dry weight nominal,100 (0.0) %
same,"Growth, mean (SEM)",mayflies Hexagenia spp.; 1 mg/kg dry weight nominal,30 (0.9) mg wet weight
same,"Survival (%), mean (SEM)",mayflies Hexagenia spp.; 1 mg/kg dry weight nominal,97 (3.3) %
same,"Growth, mean (SEM)",mayflies Hexagenia spp.; 10 mg/kg dry weight nominal,31 (1.2) mg wet weight
same,"Survival (%), mean (SEM)",mayflies Hexagenia spp.; 10 mg/kg dry weight nominal,100 (0.0) %
same,"Growth, mean (SEM)",mayflies Hexagenia spp.; 100 mg/kg dry weight nominal,20^a (0.7) mg wet weight
same,"Survival (%), mean (SEM)",mayflies Hexagenia spp.; 100 mg/kg dry weight nominal,100 (0.0) %
same,"Growth, mean (SEM)",mayflies Hexagenia spp.; 1000 mg/kg dry weight nominal,7.4^a (0.24) mg wet weight
same,"Survival (%), mean (SEM)",mayflies Hexagenia spp.; 1000 mg/kg dry weight nominal,37^a (8.8) %
same,"ChV, overlying water",mayfly Hexagenia spp. [6],0.1 mg/L
same,"ChV, sediment",mayfly Hexagenia spp. [6],21 mg/kg
same,"LOEC, overlying water",mayfly Hexagenia spp. [6],0.25 mg/L
same,"LOEC, sediment",mayfly Hexagenia spp. [6],37 mg/kg
same,"NOEC, overlying water",mayfly Hexagenia spp. [6],0.04 mg/L
same,"NOEC, sediment",mayfly Hexagenia spp. [6],12 mg/kg
same,Toxicity,[7],No toxicity was observed
same,Larval size (length and weight) vs controls,[8],significantly smaller
same,Mortality or developmental effects,[8],no mortality or developmental effects were observed
same,Direct photolysis half-life,[9],approximately 45 min
same,"Survival (percent of initial animals added), mean (SEM)",mayfly Hexagenia spp. [10]; melengestrol acetate 1 mg/kg dw sediment (0.002 mg/L water),95 (2.2) %
same,"Survival (percent of initial animals added), mean (SEM)",mayfly Hexagenia spp. [10]; melengestrol acetate 12 mg/kg dw sediment (0.04 mg/L water),90 (2.6) %
same,"Survival (percent of initial animals added), mean (SEM)",mayfly Hexagenia spp. [10]; melengestrol acetate 37 mg/kg dw sediment (0.25 mg/L water),93 (2.1) %
same,"Survival (percent of initial animals added), mean (SEM)",mayfly Hexagenia spp. [10]; melengestrol acetate 76 mg/kg dw sediment (0.5 mg/L water),92 (4.0) %
CN[C@H]1CC[C@@H](c2ccc(Cl)c(Cl)c2)c2ccccc21 [sertraline],24-h LC50,[1],0.06 µg/mL
same,28-day LC50,juvenile L. siliquoidea,0.04 µg/mL
CC(C)C(=O)Nc1ccc([N+](=O)[O-])c(C(F)(F)F)c1 [flutamide],Effect on maturation and embryonic development,D. magna [11]; concentrations up to 1 mg/L,delayed the maturation of female D. magna and inhibited the embryonic development of neonates
same,48-h EC50 for immobilization,D. magna [11],2.7 µg/mL

# — article PMC7679302 (Environmental Science and Pollution Research International, 2020)
